Legend:
[1] = NAC depletion under and without ultraviolet irradiation, HPLC with UV detection (281 nm)
[2] = NAL depletion under and without ultraviolet irradiation, HPLC with UV detection (281 nm)
[3] = Average score of NAC and NAL depletion and phototoxicity or photoallergy determination, UV detection
[4] = Average score of NAC and NAL depletion and phototoxicity or photoallergy determination, fluorescence detection
[5] = NAC depletion under and without ultraviolet irradiation, HPLC with fluorescence detection (284 nm excitation, 333 nm fluorescence)
[6] = NAL depletion under and without ultraviolet irradiation, HPLC with fluorescence detection (284 nm excitation, 333 nm fluorescence)
[7] = photoallergic compound concentration 0.05 mg/mL
[8] = photoallergic compound concentration 0.2 mg/mL
[9] = photoallergic compound concentration 0.5 mg/mL
[10] = without light irradiation, photoallergic compound concentration 0.05 mg/mL
[11] = without light irradiation, photoallergic compound concentration 0.2 mg/mL
[12] = without light irradiation, photoallergic compound concentration 0.5 mg/mL
[13] = without light irradiation, single compound

NS(=O)(=O)c1cc2c(cc1Cl)NCNS2(=O)=O [2-4]
Difference in depletion (under light irradiation - without light irradiation) NAC (%) [1, 7]: 20.9% | Difference in depletion (under light irradiation - without light irradiation) NAC (%) [1, 8]: 60.1% | Difference in depletion (under light irradiation - without light irradiation) NAC (%) [1, 9]: 84.5% | NAC Depletion (%) under light irradiation [1, 7]: 20.9% | NAC Depletion (%) under light irradiation [1, 8]: 60.1% | NAC Depletion (%) under light irradiation [1, 9]: 84.5% | NAC Depletion (%) without light irradiation [1, 10]: 0.0% | NAC Depletion (%) without light irradiation [1, 11]: 0.0% | NAC Depletion (%) without light irradiation [1, 12]: 0.0% | Difference in depletion (under light irradiation - without light irradiation) NAL (%) [2, 7]: 0.3% | Difference in depletion (under light irradiation - without light irradiation) NAL (%) [2, 8]: 1.4% | Difference in depletion (under light irradiation - without light irradiation) NAL (%) [2, 9]: 4.4% | NAL Depletion (%) under light irradiation [2, 7]: 0.3% | NAL Depletion (%) under light irradiation [2, 8]: 1.4% | NAL Depletion (%) under light irradiation [2, 9]: 4.4% | NAL Depletion (%) without light irradiation [2, 10]: 0.0% | NAL Depletion (%) without light irradiation [2, 11]: 0.0% | NAL Depletion (%) without light irradiation [2, 12]: 0.0% | Difference in depletion (under light irradiation - without light irradiation) Average score (%) [3, 8]: 30.8% | Difference in depletion (under light irradiation - without light irradiation) Average score (%) [3, 9]: 44.5% | Average score (%) under light irradiation [3, 8]: 30.8% | Average score (%) under light irradiation [3, 9]: 44.5% | Average score (%) without light irradiation [3, 10]: 0.0% | Average score (%) without light irradiation [3, 11]: 0.0% | Average score (%) without light irradiation [3, 12]: 0.0% | Difference in depletion (under light irradiation - without light irradiation) Average score (%) [4, 7]: 12.3% | Difference in depletion (under light irradiation - without light irradiation) Average score (%) [4, 8]: 32.1% | Difference in depletion (under light irradiation - without light irradiation) Average score (%) [4, 9]: 45.8% | Average score (%) under light irradiation [4, 7]: 12.3% | Average score (%) under light irradiation [4, 8]: 32.1% | Average score (%) under light irradiation [4, 9]: 45.8% | Average score (%) without light irradiation [4, 10]: 0.0% | Average score (%) without light irradiation [4, 11]: 0.0% | Average score (%) without light irradiation [4, 12]: 0.0% | Difference in depletion (under light irradiation - without light irradiation) NAC (%) [5, 7]: 21.9% | Difference in depletion (under light irradiation - without light irradiation) NAC (%) [5, 8]: 60.2% | Difference in depletion (under light irradiation - without light irradiation) NAC (%) [5, 9]: 85.9% | NAC Depletion (%) under light irradiation [5, 7]: 21.9% | NAC Depletion (%) under light irradiation [5, 8]: 60.2% | NAC Depletion (%) under light irradiation [5, 9]: 85.9% | NAC Depletion (%) without light irradiation [5, 10]: 0.0% | NAC Depletion (%) without light irradiation [5, 11]: 0.0% | NAC Depletion (%) without light irradiation [5, 12]: 0.0% | Difference in depletion (under light irradiation - without light irradiation) NAL (%) [6, 7]: 2.6% | Difference in depletion (under light irradiation - without light irradiation) NAL (%) [6, 8]: 4.0% | Difference in depletion (under light irradiation - without light irradiation) NAL (%) [6, 9]: 5.6% | NAL Depletion (%) under light irradiation [6, 7]: 2.6% | NAL Depletion (%) under light irradiation [6, 8]: 4.0% | NAL Depletion (%) under light irradiation [6, 9]: 5.6% | NAL Depletion (%) without light irradiation [6, 10]: 0.0% | NAL Depletion (%) without light irradiation [6, 11]: 0.0% | NAL Depletion (%) without light irradiation [6, 12]: 0.0%

CC(O)CO (racemic) [compound 54]
Difference in depletion (under light irradiation - without light irradiation) NAC (%) ([1]; single compound): 0.2% | NAC Depletion (%) [1, 13]: 0.0% | Difference in depletion (under light irradiation - without light irradiation) NAL (%) ([2]; single compound): 0.0% | NAL Depletion (%) [2, 13]: 0.0% | Difference in depletion (under light irradiation - without light irradiation) Average score (%) ([3]; single compound): 0.1% | Average score (%) [3, 13]: 0.0% | Difference in depletion (under light irradiation - without light irradiation) Average score (%) ([4]; single compound): 0.3% | Average score (%) [4, 13]: 0.0% | Difference in depletion (under light irradiation - without light irradiation) NAC (%) ([5]; single compound): 0.0% | NAC Depletion (%) [5, 13]: 0.0% | Difference in depletion (under light irradiation - without light irradiation) NAL (%) ([6]; single compound): 0.7% | NAL Depletion (%) [6, 13]: 0.0%

Nc1ccc(S(N)(=O)=O)cc1 [3-4, Sulfanilamide]
Difference in depletion (under light irradiation - without light irradiation) NAC (%) [1, 8]: 51.3% | Difference in depletion (under light irradiation - without light irradiation) NAC (%) [1, 9]: 79.4% | NAC Depletion (%) under light irradiation [1, 8]: 51.3% | NAC Depletion (%) under light irradiation [1, 9]: 79.4% | NAC Depletion (%) without light irradiation [1, 10]: 0.0% | NAC Depletion (%) without light irradiation [1, 11]: 0.0% | NAC Depletion (%) without light irradiation [1, 12]: 0.0% | Difference in depletion (under light irradiation - without light irradiation) NAL (%) [2, 7]: 0.0% | Difference in depletion (under light irradiation - without light irradiation) NAL (%) [2, 8]: 0.3% | Difference in depletion (under light irradiation - without light irradiation) NAL (%) [2, 9]: 0.0% | NAL Depletion (%) under light irradiation [2, 7]: 0.0% | NAL Depletion (%) under light irradiation [2, 8]: 0.3% | NAL Depletion (%) under light irradiation [2, 9]: 0.0% | NAL Depletion (%) without light irradiation [2, 10]: 0.0% | NAL Depletion (%) without light irradiation [2, 11]: 0.0% | NAL Depletion (%) without light irradiation [2, 12]: 0.0% | Difference in depletion (under light irradiation - without light irradiation) Average score (%) [3, 7]: 10.2% | Difference in depletion (under light irradiation - without light irradiation) Average score (%) [3, 9]: 39.7% | Average score (%) under light irradiation [3, 7]: 10.2% | Average score (%) under light irradiation [3, 9]: 39.7% | Average score (%) without light irradiation [3, 10]: 0.0% | Average score (%) without light irradiation [3, 11]: 0.0% | Average score (%) without light irradiation [3, 12]: 0.0% | Difference in depletion (under light irradiation - without light irradiation) Average score (%) [4, 7]: 11.8% | Difference in depletion (under light irradiation - without light irradiation) Average score (%) [4, 9]: 40.6% | Average score (%) under light irradiation [4, 7]: 11.8% | Average score (%) under light irradiation [4, 9]: 40.6% | Average score (%) without light irradiation [4, 10]: 0.0% | Average score (%) without light irradiation [4, 11]: 0.0% | Average score (%) without light irradiation [4, 12]: 0.0% | Difference in depletion (under light irradiation - without light irradiation) NAC (%) [5, 8]: 49.9% | Difference in depletion (under light irradiation - without light irradiation) NAC (%) [5, 9]: 78.2% | NAC Depletion (%) under light irradiation [5, 8]: 49.9% | NAC Depletion (%) under light irradiation [5, 9]: 78.2% | NAC Depletion (%) without light irradiation [5, 10]: 0.0% | NAC Depletion (%) without light irradiation [5, 11]: 0.0% | NAC Depletion (%) without light irradiation [5, 12]: 0.0% | Difference in depletion (under light irradiation - without light irradiation) NAL (%) [6, 7]: 2.4% | Difference in depletion (under light irradiation - without light irradiation) NAL (%) [6, 8]: 1.8% | Difference in depletion (under light irradiation - without light irradiation) NAL (%) [6, 9]: 3.1% | NAL Depletion (%) under light irradiation [6, 7]: 2.4% | NAL Depletion (%) under light irradiation [6, 8]: 1.8% | NAL Depletion (%) under light irradiation [6, 9]: 3.1% | NAL Depletion (%) without light irradiation [6, 10]: 0.0% | NAL Depletion (%) without light irradiation [6, 11]: 0.0% | NAL Depletion (%) without light irradiation [6, 12]: 0.0%
